The target in one series is recombinant PI3 kinase α (Homo sapiens (Human), UniProt P42336). As to the kind of experiment: Enzyme Inhibition Assay (HTRF PI3K enzyme assay, TR-FRET). Format: biochemical. Particulars: activity range; read-out: PI3 Kinase Inhibition IC50 values at stated Isozyme α. In outline:
(§1)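 Recombinant PI3Kα, δ or γ incubated with PIP2 substrate and compound for 2 hr at RT. Stop solution with biotin-PIP3 and GST-GRP1 PH domain/Eu-anti-GST/SA-APC detection mix added, then 15-18 hr at RT. PIP3 formed reduces the TR-FRET signal.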
A general note: Time-resolved FRET reads energy transfer from a long-lived donor to a nearby acceptor.

In another series the target is recombinant PI3 kinase γ (Homo sapiens (Human), UniProt P48736). The series is described as above. It is filed as biochemical. Particulars: activity range; read-out: PI3 Kinase Inhibition IC50 values at stated Isozyme γ. The essentials: as §1
In a further series the target is recombinant PI3 kinase δ (Homo sapiens (Human), UniProt O00329). The description is as above. Format: biochemical. Particulars: activity range; read-out: PI3 Kinase Inhibition IC50 values at stated Isozyme δ. The essentials:
as §1

The test system of series [1] is PMA-differentiated U937 cells. Briefly: MTT Assay (cell viability). It is filed as cell-based, Human. The following applies: percentage loss of cell viability; for Cell Viability MTT Assay in D-U937 cells at 4 hr: 4 hr in 5% FCS; for Cell Viability MTT Assay in D-U937 cells at 24 hr: 24 hr in 10% FCS. In outline:
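Differentiated U937 cells treated with compound for 4 hr (5% FCS) or 24 hr (10% FCS), then given MTT for 1 hr; formazan dissolved in DMSO and absorbance read at 550 nm. Viability loss expressed as % versus 0.5% DMSO vehicle.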

For series [2], the system named is H2O2 induced pAkt in D-U937 cells. Briefly: PI3Kδ Cell Based Assay (H2O2 induced pAkt). The following applies: Homo sapiens, dU937; activity range; D-U937 cells; read-out: Cellular Activity IC50 values (H2O2 induced pAkt D-U937 Cells). The essentials:
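U937 cells differentiated to macrophage-type cells with PMA (100 ng/mL, 48 to 72 hr), then stimulated with H2O2. pAkt and total Akt detected by antibody-based immunoassay. Ratio of pAkt to total Akt signal used; IC50 from concentration-response curves of serially diluted compounds.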

Sequence of recombinant PI3 kinase γ (P48736 whole entry): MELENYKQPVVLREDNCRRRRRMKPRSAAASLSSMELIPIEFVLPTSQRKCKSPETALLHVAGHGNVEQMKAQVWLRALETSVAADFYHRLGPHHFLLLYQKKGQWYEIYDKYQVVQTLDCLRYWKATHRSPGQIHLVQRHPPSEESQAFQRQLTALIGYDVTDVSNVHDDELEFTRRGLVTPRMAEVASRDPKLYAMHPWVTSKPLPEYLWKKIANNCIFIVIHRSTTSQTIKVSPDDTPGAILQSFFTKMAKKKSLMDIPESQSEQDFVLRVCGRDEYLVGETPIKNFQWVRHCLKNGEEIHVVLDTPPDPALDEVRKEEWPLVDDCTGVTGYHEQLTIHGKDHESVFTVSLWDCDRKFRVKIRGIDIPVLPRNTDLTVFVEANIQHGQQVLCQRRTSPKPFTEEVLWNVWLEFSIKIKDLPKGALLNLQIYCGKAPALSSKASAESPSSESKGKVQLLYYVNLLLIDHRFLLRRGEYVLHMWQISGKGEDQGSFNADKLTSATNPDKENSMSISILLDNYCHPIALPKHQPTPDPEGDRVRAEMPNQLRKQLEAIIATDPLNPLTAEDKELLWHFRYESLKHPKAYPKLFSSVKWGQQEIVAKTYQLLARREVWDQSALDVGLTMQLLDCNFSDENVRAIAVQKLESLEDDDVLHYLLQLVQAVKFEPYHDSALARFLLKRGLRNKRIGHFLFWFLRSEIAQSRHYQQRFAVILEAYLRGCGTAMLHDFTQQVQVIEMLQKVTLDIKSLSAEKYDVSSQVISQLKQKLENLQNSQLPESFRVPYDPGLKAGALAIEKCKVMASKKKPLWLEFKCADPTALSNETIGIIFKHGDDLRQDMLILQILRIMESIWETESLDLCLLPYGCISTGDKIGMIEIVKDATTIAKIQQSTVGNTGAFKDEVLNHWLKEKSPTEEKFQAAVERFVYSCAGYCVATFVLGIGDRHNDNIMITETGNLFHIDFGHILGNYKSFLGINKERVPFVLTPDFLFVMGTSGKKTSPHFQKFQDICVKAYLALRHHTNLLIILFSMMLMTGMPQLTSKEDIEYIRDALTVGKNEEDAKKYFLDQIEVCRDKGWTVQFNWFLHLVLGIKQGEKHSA
Sequence of recombinant PI3 kinase δ (O00329 whole entry): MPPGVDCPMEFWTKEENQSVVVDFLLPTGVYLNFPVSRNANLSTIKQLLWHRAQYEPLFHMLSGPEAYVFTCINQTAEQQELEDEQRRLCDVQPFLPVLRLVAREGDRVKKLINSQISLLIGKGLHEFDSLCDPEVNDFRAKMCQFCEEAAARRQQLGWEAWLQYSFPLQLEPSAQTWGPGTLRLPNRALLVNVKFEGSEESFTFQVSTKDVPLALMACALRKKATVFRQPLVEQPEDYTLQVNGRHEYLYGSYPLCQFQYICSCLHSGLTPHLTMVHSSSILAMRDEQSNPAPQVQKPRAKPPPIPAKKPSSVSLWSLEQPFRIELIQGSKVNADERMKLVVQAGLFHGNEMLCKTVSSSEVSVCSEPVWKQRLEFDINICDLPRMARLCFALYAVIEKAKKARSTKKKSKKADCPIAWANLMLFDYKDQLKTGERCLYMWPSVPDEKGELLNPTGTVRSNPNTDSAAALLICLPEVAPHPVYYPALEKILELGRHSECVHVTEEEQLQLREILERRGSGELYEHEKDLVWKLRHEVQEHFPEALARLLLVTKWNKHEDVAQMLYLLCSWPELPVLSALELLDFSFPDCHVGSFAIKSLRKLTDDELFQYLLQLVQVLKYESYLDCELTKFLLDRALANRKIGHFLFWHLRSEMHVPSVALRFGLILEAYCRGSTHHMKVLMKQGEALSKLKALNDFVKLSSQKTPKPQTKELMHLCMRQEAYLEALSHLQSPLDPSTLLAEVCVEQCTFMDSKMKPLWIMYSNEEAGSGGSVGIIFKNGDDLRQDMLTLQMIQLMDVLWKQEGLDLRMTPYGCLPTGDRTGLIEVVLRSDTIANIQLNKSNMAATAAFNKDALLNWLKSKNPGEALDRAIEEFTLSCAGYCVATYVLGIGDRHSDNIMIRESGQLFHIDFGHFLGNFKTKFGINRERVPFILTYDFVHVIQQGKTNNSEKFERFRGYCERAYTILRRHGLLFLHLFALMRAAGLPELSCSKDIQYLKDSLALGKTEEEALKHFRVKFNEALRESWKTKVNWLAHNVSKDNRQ
Sequence of recombinant PI3 kinase δ (P27986 whole entry partner): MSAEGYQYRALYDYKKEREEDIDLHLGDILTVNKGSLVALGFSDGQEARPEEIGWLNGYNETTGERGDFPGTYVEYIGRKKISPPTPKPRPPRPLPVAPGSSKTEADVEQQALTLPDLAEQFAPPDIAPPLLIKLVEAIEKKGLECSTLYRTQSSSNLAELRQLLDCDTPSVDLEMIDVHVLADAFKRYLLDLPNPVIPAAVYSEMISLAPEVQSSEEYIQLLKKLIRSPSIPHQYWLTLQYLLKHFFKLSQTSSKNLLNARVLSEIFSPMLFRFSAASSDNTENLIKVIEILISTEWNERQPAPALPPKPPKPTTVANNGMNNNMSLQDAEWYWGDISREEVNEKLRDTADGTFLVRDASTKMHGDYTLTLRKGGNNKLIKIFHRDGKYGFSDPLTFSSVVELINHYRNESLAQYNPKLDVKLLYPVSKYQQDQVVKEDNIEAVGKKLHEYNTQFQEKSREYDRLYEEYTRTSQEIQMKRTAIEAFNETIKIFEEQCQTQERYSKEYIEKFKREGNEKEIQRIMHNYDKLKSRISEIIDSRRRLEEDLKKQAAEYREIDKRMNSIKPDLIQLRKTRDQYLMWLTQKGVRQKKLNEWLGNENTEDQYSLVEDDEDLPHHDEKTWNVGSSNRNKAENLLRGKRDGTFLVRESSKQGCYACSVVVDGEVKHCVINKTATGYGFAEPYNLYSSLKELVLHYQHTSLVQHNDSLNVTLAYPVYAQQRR
Sequence of recombinant PI3 kinase α (P42336 whole entry, the tested form may be a part): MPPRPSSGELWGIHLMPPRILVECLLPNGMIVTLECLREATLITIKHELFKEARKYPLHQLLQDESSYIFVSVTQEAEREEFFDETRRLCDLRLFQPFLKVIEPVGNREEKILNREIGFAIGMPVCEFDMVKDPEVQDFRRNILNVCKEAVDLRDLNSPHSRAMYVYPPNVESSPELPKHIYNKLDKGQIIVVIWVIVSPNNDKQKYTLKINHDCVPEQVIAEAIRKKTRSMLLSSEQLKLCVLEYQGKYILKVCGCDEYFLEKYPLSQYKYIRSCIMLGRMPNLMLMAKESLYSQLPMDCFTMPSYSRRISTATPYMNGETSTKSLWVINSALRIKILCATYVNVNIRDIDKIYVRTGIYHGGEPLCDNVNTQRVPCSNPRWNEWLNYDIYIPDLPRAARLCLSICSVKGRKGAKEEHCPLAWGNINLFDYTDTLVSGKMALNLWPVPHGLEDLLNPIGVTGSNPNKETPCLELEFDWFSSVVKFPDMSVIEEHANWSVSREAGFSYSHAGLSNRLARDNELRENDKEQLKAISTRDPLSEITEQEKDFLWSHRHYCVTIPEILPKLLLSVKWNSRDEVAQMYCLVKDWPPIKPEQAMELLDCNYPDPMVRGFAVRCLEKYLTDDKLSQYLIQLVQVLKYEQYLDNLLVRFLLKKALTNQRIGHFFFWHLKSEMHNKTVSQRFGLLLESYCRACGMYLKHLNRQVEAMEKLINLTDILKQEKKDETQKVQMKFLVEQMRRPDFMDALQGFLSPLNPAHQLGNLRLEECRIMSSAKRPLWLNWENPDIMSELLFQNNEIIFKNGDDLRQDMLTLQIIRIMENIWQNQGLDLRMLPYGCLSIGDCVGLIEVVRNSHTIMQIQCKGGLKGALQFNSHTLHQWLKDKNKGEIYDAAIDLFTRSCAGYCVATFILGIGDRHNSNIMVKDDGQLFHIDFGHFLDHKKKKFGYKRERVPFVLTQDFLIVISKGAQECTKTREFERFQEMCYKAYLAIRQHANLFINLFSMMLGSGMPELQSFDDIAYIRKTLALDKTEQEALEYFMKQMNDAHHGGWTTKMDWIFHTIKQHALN
Sequence of recombinant PI3 kinase α (P27986 whole entry partner, the tested form may be a part): as the sequence (P27986 whole entry partner) above

By IC50 is commonly meant the concentration that inhibits the measured activity by half. As to `CN1CCCN(C(=O)CCCC#Cc2cccc3nc(Cn4nc(-c5ccc(O)cc5)c5c(N)ncnc54)n(Cc4ccccc4Cl)c(=O)c23)CC1` [Example 93, 2-((4-Amino-3-(4-hydroxyphenyl)-1H-pyrazolo[3,4-d]pyrimidin-1-yl)methyl)-3-(2-chlorobenzyl)-5-(6-(4-methyl-1,4-diazepan-1-yl)-6-oxohex-1-ynyl)quinazolin-4(3H)-one], the IC50 on recombinant PI3 kinase α is 50 to 1000 nM; at recombinant PI3 kinase γ, less than 50 nM; at recombinant PI3 kinase δ, less than 50 nM; in series [2] it was less than 10 nM. Moreover, in series [1], the “Cell Viability MTT Assay in D-U937 cells at 4 hr” value is listed as “− (− <30%)”. Also, the “Cell Viability MTT Assay in D-U937 cells at 24 hr” value in series [1] is “− (− <30%)”.

As to `CN1CCN(C(=O)CCCC#Cc2cccc3nc(Cn4nc(-c5cccc(O)c5)c5c(N)ncnc54)n(Cc4ccccc4Cl)c(=O)c23)CC1` [Example 69, 2-((4-Amino-3-(3-hydroxyphenyl)-1H-pyrazolo[3,4-d]pyrimidin-1-yl)methyl)-3-(2-chlorobenzyl)-5-(6-(4-methylpiperazin-1-yl)-6-oxohex-1-yn-1-yl)quinazolin-4(3H)-one], the IC50 at recombinant PI3 kinase α is 50 to 1000 nM; on recombinant PI3 kinase γ, less than 50 nM; at recombinant PI3 kinase δ, less than 50 nM; in series [2] it was less than 10 nM. The “Cell Viability MTT Assay in D-U937 cells at 4 hr” value in series [1] was “+ (+ >30%)”. In addition, in series [1], the “Cell Viability MTT Assay in D-U937 cells at 24 hr” value is recorded as “− (− <30%)”.

On to `C#Cc1cccc2nc(Cn3nc(-c4ccc(O)cc4)c4c(N)ncnc43)n(Cc3ccc(C#N)cc3)c(=O)c12` [Example 47, 4-((2-((4-Amino-3-(4-hydroxyphenyl)-1H-pyrazolo[3,4-d]pyrimidin-1-yl)methyl)-5-ethynyl-4-oxoquinazolin-3(4H)-yl)methyl)benzonitrile], for which the IC50 at recombinant PI3 kinase α was 50 to 1000 nM; on recombinant PI3 kinase γ, 50 to 1000 nM; at recombinant PI3 kinase δ, less than 50 nM; in series [2] it was less than 10 nM. In series [1], the “Cell Viability MTT Assay in D-U937 cells at 4 hr” value was “− (− <30%)”. In series [1], the “Cell Viability MTT Assay in D-U937 cells at 24 hr” value is reported as “− (− <30%)”.

As for `Nc1ncnc2c1c(-c1cccc(O)c1)nn2Cc1nc2cccc(C#CCCCCC(=O)O)c2c(=O)n1Cc1ccccc1Cl` [Example 60, 7-(2-((4-Amino-3-(3-hydroxyphenyl)-1H-pyrazolo[3,4-d]pyrimidin-1-yl)methyl)-3-(2-chlorobenzyl)-4-oxo-3,4-dihydroquinazolin-5-yl)hept-6-ynoic acid], the IC50 is 50 to 1000 nM on recombinant PI3 kinase α, less than 50 nM at recombinant PI3 kinase γ, less than 50 nM on recombinant PI3 kinase δ and less than 10 nM in series [2]. The “Cell Viability MTT Assay in D-U937 cells at 4 hr” value in series [1] was “− (− <30%)”. Besides, the “Cell Viability MTT Assay in D-U937 cells at 24 hr” value in series [1] is recorded as “− (− <30%)”.

On to `Nc1ncnc2c1c(-c1ccc(O)cc1)nn2Cc1nc2cccc(C#CCCCC(=O)N3CCOCC3)c2c(=O)n1Cc1cc2ccccc2s1` [Example 63, 2-((4-Amino-3-(4-hydroxyphenyl)-1H-pyrazolo[3,4-d]pyrimidin-1-yl)methyl)-3-(benzo[b]thiophen-2-ylmethyl)-5-(6-morpholino-6-oxohex-1-yn-1-yl)quinazolin-4(3H)-one], for which the IC50 is 50 to 1000 nM at recombinant PI3 kinase α, less than 50 nM at recombinant PI3 kinase γ, less than 50 nM at recombinant PI3 kinase δ and less than 10 nM in series [2]. The “Cell Viability MTT Assay in D-U937 cells at 4 hr” value in series [1] is “− (− <30%)”. In addition, the “Cell Viability MTT Assay in D-U937 cells at 24 hr” value in series [1] is “− (− <30%)”.

In the case of `N#Cc1cccc(Cn2c(Cn3nc(-c4cccc(O)c4)c4c(N)ncnc43)nc3cccc(C#CCOCCOCCO)c3c2=O)c1` [Example 6, 3-((2-((4-Amino-3-(3-hydroxyphenyl)-1H-pyrazolo[3,4-d]pyrimidin-1-yl)methyl)-5-(3-(2-(2-hydroxyethoxy)ethoxy)prop-1-yn-1-yl)-4-oxoquinazolin-3(4H)-yl)methyl)benzonitrile], the IC50 on recombinant PI3 kinase α is 50 to 1000 nM; at recombinant PI3 kinase γ, 50 to 1000 nM; at recombinant PI3 kinase δ, less than 50 nM; in series [2], less than 10 nM. The “Cell Viability MTT Assay in D-U937 cells at 4 hr” value in series [1] is listed as “− (− <30%)”. For the same molecule, in series [1], the “Cell Viability MTT Assay in D-U937 cells at 24 hr” value is given as “− (− <30%)”.

In the case of `CN(C)C1CCN(C(=O)CCCC#Cc2cccc3nc(Cn4nc(-c5ccc(O)cc5)c5c(N)ncnc54)n(Cc4ccccc4Cl)c(=O)c23)CC1` [Example 81, 2-((4-Amino-3-(4-hydroxyphenyl)-1H-pyrazolo[3,4-d]pyrimidin-1-yl)methyl)-3-(2-chlorobenzyl)-5-(6-(4-(dimethylamino)piperidin-1-yl)-6-oxohex-1-ynyl) quinazolin-4(3H)-one], the IC50 was 50 to 1000 nM at recombinant PI3 kinase α, 50 to 1000 nM on recombinant PI3 kinase γ, less than 50 nM on recombinant PI3 kinase δ and less than 10 nM in series [2]. Moreover, in series [1], the “Cell Viability MTT Assay in D-U937 cells at 4 hr” value is reported as “− (− <30%)”. Further, the “Cell Viability MTT Assay in D-U937 cells at 24 hr” value in series [1] is on record as “− (− <30%)”.

For the molecule `C#Cc1cccc2nc(Cn3nc(-c4ccc(O)cc4)c4c(N)ncnc43)n(Cc3ccc(OC)cc3F)c(=O)c12` [Example 48, 2-((4-Amino-3-(4-hydroxyphenyl)-1H-pyrazolo[3,4-d]pyrimidin-1-yl)methyl)-5-ethynyl-3-(2-fluoro-4-methoxybenzyl)quinazolin-4(3H)-one], the IC50 at recombinant PI3 kinase α was 50 to 1000 nM; at recombinant PI3 kinase γ it was 50 to 1000 nM; at recombinant PI3 kinase δ, less than 50 nM; in series [2] it was less than 10 nM. Also, the “Cell Viability MTT Assay in D-U937 cells at 4 hr” value in series [1] was “− (− <30%)”. In series [1], the “Cell Viability MTT Assay in D-U937 cells at 24 hr” value is on record as “− (− <30%)”.

In the case of `C#Cc1cccc2nc(Cn3nc(-c4ccc(O)cc4)c4c(N)ncnc43)n(Cc3ccc(C(F)(F)F)cc3)c(=O)c12` [Example 29, 2-((4-Amino-3-(4-hydroxyphenyl)-1H-pyrazolo[3,4-d]pyrimidin-1-yl)methyl)-5-ethynyl-3-(4-(trifluoromethyl)benzyl)quinazolin-4(3H)-one], the IC50 at recombinant PI3 kinase α was 50 to 1000 nM; on recombinant PI3 kinase γ, 50 to 1000 nM; on recombinant PI3 kinase δ, less than 50 nM; in series [2], less than 10 nM. In addition, in series [1], the “Cell Viability MTT Assay in D-U937 cells at 4 hr” value was “− (− <30%)”. Besides, the “Cell Viability MTT Assay in D-U937 cells at 24 hr” value in series [1] is “− (− <30%)”.

Regarding `CC(=O)N1CCN(C(=O)CCCC#Cc2cccc3nc(Cn4nc(-c5ccc(O)cc5)c5c(N)ncnc54)n(Cc4ccccc4Cl)c(=O)c23)CC1` [Example 71], the IC50 on recombinant PI3 kinase α was 50 to 1000 nM; on recombinant PI3 kinase γ it was less than 50 nM; at recombinant PI3 kinase δ it was less than 50 nM; in series [2], less than 10 nM. For the same molecule, the “Cell Viability MTT Assay in D-U937 cells at 4 hr” value in series [1] was “− (− <30%)”. The “Cell Viability MTT Assay in D-U937 cells at 24 hr” value in series [1] is “− (− <30%)”.

`COCC#Cc1cccc2nc(Cn3nc(-c4ccc(O)cc4)c4c(N)ncnc43)n(Cc3cccc(OC)c3)c(=O)c12` [Example 27, 2-((4-Amino-3-(4-hydroxyphenyl)-1H-pyrazolo[3,4-d]pyrimidin-1-yl)methyl)-3-(3-methoxybenzyl)-5-(3-methoxyprop-1-ynyl)quinazolin-4(3H)-one]: the IC50 was 50 to 1000 nM on recombinant PI3 kinase α, 50 to 1000 nM on recombinant PI3 kinase γ, less than 50 nM on recombinant PI3 kinase δ and less than 10 nM in series [2]. Moreover, the “Cell Viability MTT Assay in D-U937 cells at 4 hr” value in series [1] is “− (− <30%)”. Besides, the “Cell Viability MTT Assay in D-U937 cells at 24 hr” value in series [1] is given as “− (− <30%)”.

Regarding `C#Cc1cccc2nc(Cn3nc(-c4ccc(O)cc4)c4c(N)ncnc43)n(Cc3ccccc3C(F)(F)F)c(=O)c12` [Example 45, 2-((4-Amino-3-(4-hydroxyphenyl)-1H-pyrazolo[3,4-d]pyrimidin-1-yl)methyl)-5-ethynyl-3-(2-trifluoromethylbenzyl)quinazolin-4(3H)-one], the IC50 was 50 to 1000 nM at recombinant PI3 kinase α, 50 to 1000 nM on recombinant PI3 kinase γ, less than 50 nM at recombinant PI3 kinase δ and less than 10 nM in series [2]. For the same molecule, in series [1], the “Cell Viability MTT Assay in D-U937 cells at 4 hr” value is given as “− (− <30%)”. Moreover, in series [1], the “Cell Viability MTT Assay in D-U937 cells at 24 hr” value is given as “− (− <30%)”.

For the molecule `COCCN(CCCC#Cc1cccc2nc(Cn3nc(-c4ccc(O)cc4)c4c(N)ncnc43)n(Cc3ccccc3Cl)c(=O)c12)CCOC` [Example 73, 2-((4-Amino-3-(4-hydroxyphenyl)-1H-pyrazolo[3,4-d]pyrimidin-1-yl)methyl)-5-(5-(bis(2-methoxyethyl)amino)pent-1-ynyl)-3-(2-chlorobenzyl)quinazolin-4(3H)-one], the half-maximal inhibitory concentration (IC50) is 50 to 1000 nM on recombinant PI3 kinase α, less than 50 nM at recombinant PI3 kinase γ, less than 50 nM at recombinant PI3 kinase δ and less than 10 nM in series [2]. Further, the “Cell Viability MTT Assay in D-U937 cells at 4 hr” value in series [1] is on record as “− (− <30%)”. Further, the “Cell Viability MTT Assay in D-U937 cells at 24 hr” value in series [1] is listed as “− (− <30%)”.

Consider `COC(=O)c1cccc(Cn2c(Cn3nc(-c4cccc(O)c4)c4c(N)ncnc43)nc3cccc(C#CCCCC(=O)N4CCOCC4)c3c2=O)c1` [Example 65, Methyl 3-((2-((4-amino-3-(3-hyroxyphenyl)-1H-pyrazolo[3,4-d]pyrimidin-1-yl)methyl)-5-(6-morpholino-6-oxohex-1-yn-1-yl)-4-oxoquinazolin-3(4H)-yl)methyl)benzoate], for which the IC50 on recombinant PI3 kinase α was 50 to 1000 nM; on recombinant PI3 kinase γ it was less than 50 nM; at recombinant PI3 kinase δ, less than 50 nM; in series [2], less than 10 nM. The “Cell Viability MTT Assay in D-U937 cells at 4 hr” value in series [1] is on record as “− (− <30%)”. Besides, the “Cell Viability MTT Assay in D-U937 cells at 24 hr” value in series [1] is “− (− <30%)”.

For the origin of these results see US9321773B2, “Compounds” (Respivert Ltd, priority 2009, dated 2016).
